Source: patent US10822336B2, “Crystals of [2-(1-methyl-1H-pyrazol-4-yl)-6(morpholin-4-yl)-9H-purin-8-yl][4-(morpholin-4-yl)piperidin-1-yl]methanone and pharmaceutically acceptable salt thereof” (Daiichi Sankyo Company, Limited, priority 2016, dated 2020)

Experiments:
PI3Kα = molecular target: T1, PI3Kα (Homo sapiens, UniProt P42336); assay: In-vitro enzyme assay (Kinase-Glo luminescent kinase assay), PI3Kα; format: biochemical; details: enzyme 2.29 μg/mL, ATP 10 μM, PIP2 60 μM, 2 hours; read-out: inhibitory activity (IC50) against PI3Kα
T1 construct: purchased Proteros, Germany
T1 sequence (P42336 whole entry, species assumed): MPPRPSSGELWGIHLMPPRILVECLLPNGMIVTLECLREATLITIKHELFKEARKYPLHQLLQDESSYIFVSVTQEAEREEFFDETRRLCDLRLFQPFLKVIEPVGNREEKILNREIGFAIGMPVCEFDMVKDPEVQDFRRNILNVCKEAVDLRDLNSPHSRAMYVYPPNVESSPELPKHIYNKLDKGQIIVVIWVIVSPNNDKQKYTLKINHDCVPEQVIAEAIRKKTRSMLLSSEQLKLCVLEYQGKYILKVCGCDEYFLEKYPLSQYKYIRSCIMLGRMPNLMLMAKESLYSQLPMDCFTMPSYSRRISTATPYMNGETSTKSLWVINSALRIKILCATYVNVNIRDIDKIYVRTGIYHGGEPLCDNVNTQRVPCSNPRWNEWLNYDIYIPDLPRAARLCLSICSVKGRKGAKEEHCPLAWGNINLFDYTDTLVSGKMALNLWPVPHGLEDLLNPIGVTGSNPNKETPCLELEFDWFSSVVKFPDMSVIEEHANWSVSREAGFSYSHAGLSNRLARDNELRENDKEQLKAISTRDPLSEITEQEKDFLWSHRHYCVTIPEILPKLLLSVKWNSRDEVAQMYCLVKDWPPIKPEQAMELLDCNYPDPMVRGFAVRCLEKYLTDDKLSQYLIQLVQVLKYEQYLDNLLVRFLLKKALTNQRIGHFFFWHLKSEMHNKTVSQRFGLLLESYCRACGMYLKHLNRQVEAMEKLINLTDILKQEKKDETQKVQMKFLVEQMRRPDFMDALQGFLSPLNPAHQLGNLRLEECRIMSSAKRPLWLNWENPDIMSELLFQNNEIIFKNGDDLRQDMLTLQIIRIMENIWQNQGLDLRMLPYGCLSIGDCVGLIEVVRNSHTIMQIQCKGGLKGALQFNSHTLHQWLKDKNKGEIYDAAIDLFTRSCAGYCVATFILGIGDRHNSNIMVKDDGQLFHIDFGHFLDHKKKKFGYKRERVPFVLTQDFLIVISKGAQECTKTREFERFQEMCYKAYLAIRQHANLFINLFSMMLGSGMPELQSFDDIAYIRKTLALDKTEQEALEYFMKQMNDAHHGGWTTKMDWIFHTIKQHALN
T1 sequence (P27986 whole entry partner, species assumed): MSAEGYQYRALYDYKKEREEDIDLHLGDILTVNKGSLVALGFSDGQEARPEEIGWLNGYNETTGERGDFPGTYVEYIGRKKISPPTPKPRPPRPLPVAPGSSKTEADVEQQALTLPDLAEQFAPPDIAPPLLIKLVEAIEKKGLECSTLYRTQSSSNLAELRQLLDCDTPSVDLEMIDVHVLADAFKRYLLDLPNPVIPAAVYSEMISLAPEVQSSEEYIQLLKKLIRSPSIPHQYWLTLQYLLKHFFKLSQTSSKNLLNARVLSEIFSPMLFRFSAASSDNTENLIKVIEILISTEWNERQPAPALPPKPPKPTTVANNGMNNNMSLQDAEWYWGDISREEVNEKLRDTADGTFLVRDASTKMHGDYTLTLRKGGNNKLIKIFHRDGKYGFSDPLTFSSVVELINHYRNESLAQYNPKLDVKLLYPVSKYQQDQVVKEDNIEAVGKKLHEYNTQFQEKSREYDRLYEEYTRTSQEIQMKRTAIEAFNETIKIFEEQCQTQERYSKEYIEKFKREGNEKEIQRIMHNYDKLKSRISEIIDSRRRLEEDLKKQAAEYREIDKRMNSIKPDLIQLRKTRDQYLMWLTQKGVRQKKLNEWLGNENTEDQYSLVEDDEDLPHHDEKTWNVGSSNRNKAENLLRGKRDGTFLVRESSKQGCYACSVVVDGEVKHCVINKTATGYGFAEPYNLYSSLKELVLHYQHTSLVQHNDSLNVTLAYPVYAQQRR
Method: (§1) A Kinase-Glo luminescent kinase assay kit (manufactured by Promega) was used for measuring kinase activity. In this assay, the amount of ATP remaining in a solution after a kinase reaction was measured. To confirm the effect of a compound on PI3Kδ inhibition, 2.29 μg/ml recombinant PI3Kδ enzyme (Proteros, Germany) was added to a reaction mixture containing 10 mM MgCl2, 5 mM DTT, 60 μM phosphatidylinositol diphosphate (PIP2) and an assay buffer (containing 50 mM HEPES, pH7.4, 50 mM NaCl, 0.05% CHAPS) supplemented with 10 μM ATP in a final volume of 15 μl/well, in the presence and absence of compound (I), in a 384-well plate. The reaction mixture was incubated at room temperature for 2 hours. At the end of the incubation period, the same volume of Kinase-Glo plus (Promega, V3772) was added per well. After the reaction mixture was incubated at room temperature for 10 minutes in a dark place, emission was measured. The results were calculated by measuring the emission unit of the test sample relative to a blank containing no enzyme.
(§2) Using specific recombinant enzymes (Proteros, Germany) PI3Kα, PI3Kβ and PI3Kγ, inhibitory activities of compound (I) against each of the kinases were examined. The assay conditions of kinases (PI3Kα, PI3Kβ, PI3Kγ and PI3Kδ) were as follows.

PI3Kβ = molecular target: T2, PI3Kβ (Homo sapiens, UniProt P42338); assay: In-vitro enzyme assay (Kinase-Glo luminescent kinase assay), PI3Kβ; format: biochemical; details: enzyme 2.29 μg/mL, ATP 10 μM, PIP2 60 μM, 2 hours; read-out: inhibitory activity (IC50) against PI3Kβ
T2 construct: purchased Proteros, Germany
T2 sequence (P42338 whole entry, species assumed): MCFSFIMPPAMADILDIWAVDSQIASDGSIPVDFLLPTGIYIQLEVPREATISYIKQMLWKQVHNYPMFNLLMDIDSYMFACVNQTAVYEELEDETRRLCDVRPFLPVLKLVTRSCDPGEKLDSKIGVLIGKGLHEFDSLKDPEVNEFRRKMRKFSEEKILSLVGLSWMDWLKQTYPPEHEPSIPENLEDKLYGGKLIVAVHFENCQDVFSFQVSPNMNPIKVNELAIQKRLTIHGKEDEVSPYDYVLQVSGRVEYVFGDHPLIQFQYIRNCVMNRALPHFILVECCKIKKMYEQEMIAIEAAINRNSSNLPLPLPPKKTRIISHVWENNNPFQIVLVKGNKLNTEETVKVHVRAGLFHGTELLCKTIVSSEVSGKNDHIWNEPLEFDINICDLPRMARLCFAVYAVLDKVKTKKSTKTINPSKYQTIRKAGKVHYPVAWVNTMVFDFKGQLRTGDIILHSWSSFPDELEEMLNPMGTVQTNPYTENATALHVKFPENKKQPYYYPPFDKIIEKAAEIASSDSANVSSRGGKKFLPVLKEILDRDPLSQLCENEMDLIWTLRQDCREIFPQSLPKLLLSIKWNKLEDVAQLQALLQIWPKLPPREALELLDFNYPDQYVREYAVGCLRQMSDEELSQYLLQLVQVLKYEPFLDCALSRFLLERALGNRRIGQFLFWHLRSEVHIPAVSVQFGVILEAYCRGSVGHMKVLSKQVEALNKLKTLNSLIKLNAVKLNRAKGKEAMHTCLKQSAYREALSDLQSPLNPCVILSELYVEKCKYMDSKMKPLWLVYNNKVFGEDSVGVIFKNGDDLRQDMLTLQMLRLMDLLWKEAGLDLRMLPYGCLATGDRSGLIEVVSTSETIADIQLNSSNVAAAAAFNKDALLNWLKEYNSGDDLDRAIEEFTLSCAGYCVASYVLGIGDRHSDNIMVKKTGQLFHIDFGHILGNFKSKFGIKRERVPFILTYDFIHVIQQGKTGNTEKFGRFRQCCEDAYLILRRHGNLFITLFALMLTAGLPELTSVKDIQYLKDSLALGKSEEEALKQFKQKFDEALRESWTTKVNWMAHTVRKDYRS
T2 sequence (P27986 whole entry partner, species assumed): as the sequence (P27986 whole entry partner, species assumed) above
Method: as §1, §2

PI3Kγ = molecular target: T3, PI3Kγ (Homo sapiens, UniProt P48736); assay: In-vitro enzyme assay (Kinase-Glo luminescent kinase assay), PI3Kγ; format: biochemical; details: enzyme 2.29 μg/mL, ATP 10 μM, PIP2 60 μM, 2 hours; read-out: inhibitory activity (IC50) against PI3Kγ
T3 construct: purchased Proteros, Germany
T3 sequence (P48736 whole entry, species assumed): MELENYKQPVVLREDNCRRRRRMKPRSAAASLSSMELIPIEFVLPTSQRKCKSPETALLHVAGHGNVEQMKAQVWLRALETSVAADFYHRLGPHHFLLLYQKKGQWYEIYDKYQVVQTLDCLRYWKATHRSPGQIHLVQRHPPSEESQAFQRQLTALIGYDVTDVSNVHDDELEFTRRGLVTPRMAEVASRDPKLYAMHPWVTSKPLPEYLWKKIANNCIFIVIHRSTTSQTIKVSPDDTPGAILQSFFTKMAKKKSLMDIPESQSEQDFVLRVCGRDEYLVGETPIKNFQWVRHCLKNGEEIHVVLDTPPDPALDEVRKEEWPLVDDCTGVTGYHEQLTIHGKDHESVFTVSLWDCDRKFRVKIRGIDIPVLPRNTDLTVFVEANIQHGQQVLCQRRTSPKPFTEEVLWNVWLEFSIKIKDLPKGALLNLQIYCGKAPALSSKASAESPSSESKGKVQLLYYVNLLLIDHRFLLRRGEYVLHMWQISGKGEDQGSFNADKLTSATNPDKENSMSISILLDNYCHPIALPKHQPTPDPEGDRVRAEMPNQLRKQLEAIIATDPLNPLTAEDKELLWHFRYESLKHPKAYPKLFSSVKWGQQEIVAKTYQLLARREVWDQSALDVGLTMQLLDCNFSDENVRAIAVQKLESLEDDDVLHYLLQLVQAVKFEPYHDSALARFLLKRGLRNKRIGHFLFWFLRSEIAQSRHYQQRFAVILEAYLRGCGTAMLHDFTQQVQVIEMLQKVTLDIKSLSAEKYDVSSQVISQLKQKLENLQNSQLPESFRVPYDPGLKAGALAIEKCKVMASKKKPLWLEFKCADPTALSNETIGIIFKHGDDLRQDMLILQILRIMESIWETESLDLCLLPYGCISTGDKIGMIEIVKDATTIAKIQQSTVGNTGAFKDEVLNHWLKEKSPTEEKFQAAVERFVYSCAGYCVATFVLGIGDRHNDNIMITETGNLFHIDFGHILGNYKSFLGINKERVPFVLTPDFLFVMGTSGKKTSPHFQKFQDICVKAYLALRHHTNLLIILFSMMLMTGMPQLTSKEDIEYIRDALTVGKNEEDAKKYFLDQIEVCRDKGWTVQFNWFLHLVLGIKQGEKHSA
Method: as §1, §2

[1] = test system: mitogen-induced IFN-γ release in mouse splenocytes; assay: Phytohaemagglutinin (PHA) inducible interferon (IFN)-gamma release in mouse splenocytes; format: cell-based; details: Splenocyte; C57BL/6 mouse splenocytes, PHA 10 μg/ml, 48 hours, ELISA; read-out: activity (IC50), inhibition of IFN-γ release
Method: Phytohaemagglutinin (PHA) Inducible Interferon (IFN)-Gamma Release in Mouse Splenocytes
In a cell based assay system, the effect of a compound on mitogen-induced IFN-γ release in mouse splenocytes was evaluated [Blood (2010) 115: 2203 to 2213 pages; Current Protocols in Immunology (2004) 3.12.1 to 3.12.20].
Mouse splenocytes were obtained from the spleen of a C57BL/6 mouse and seeded in a 96-well tissue culture plate at a density of 250,000 cells/well. The splenocytes were treated with the compound (I), and thereafter, stimulated with PHA (10 μg/ml) for 48 hours. In this manner, an effect of compound (I) on inhibition of IFN-γ release was evaluated. The IFN-γ release in the cell culture supernatant was quantified by ELISA in accordance with the manufacturer's protocol (BD Biosciences, #555138).

[2] = test system: Ovalbumin-induced airway eosinophilia; assay: Ovalbumin-induced airway eosinophilia model in Brown Norway rat; format: in vivo; details: Eosinophil; bid, oral gavage, male Brown Norway rat, 48 hours after ovalbumin challenge; read-out: ED50 value (eosinophils in bronchoalveolar lavage fluid)
Method: Ovalbumin-Induced Airway Eosinophilia Model in Brown Norway Rat
The protocol used herein was described in Clin. Exp. Immunol., 2001; 126: 9 to 15 pages and J. Pharmacol. Exp. Ther., 2011; 337: 145 to 54 pages.
A male Brown Norway rat was sensitized by intraperitoneally injecting a suspension (in 0.9% physiological saline sterilized) of ovalbumin (1 mg) and aluminum hydroxide (100 mg) on Day 0 and Day 7. On Day 14, the compound (I) was administered to the rat by oral gavage. One hour after the oral administration, the animal was housed in a Perspex chamber and exposed to 5% ovalbumin aerosol for 10 minutes. The compound (I) was administered once or twice a day on Day 14 and Day 15. Forty eight hours after ovalbumin challenge, the animal was euthanized and bronchoalveolar lavage fluid was collected. The cell suspension was treated, and the absolute number of eosinophils were counted.

[3] = test system: HDM-induced chronic asthma (eosinophils in bronchoalveolar lavage fluid); assay: House dust mite (HDM)-induced chronic asthma model of Balb/c mouse; format: in vivo; details: Eosinophil; bid, oral, third to fifth week, female Balb/c mouse, 48 hours after final HDM exposure
Method: House Dust Mite (HDM)-Induced Chronic Asthma Model of Balb/c Mouse
The protocol used herein was described in Am. J. Respir. Crit. Care Med., 2004; 169: 378 to 385 pages.
A female Balb/c mouse was intranasally exposed to a purified HDM (Dermatophagoides pteronyssinus) extract at maximum for 5 successive weeks at a frequency of 5 days/week (protein (25 μg) in physiological saline (20 μl)). The compound (I) was orally administered twice a day from the third week to fifth week. Forty eight hours after the final HDM exposure, the animal was euthanized and bronchoalveolar lavage fluid was collected. The cell suspension was treated, and the absolute number of eosinophils were counted.

[4] = Oral bioavailability (BA) in rats; format: in vivo; details: plasma; female Wistar rat, 10.0 mg/kg oral vs 3.0 mg/kg intravenous
Method: Oral Bioavailability (BA) in Rats
(§3) To a female Wistar rat (210±10 g), the compound (I) was intravenously administered as a solution containing the compound (I) (2.0 mg/mL) in a vehicle containing polysorbate and dextrose (pH5.0) or orally as a suspension of the compound (I) (1.0 mg/mL) in methyl cellulose. The final dosage in the case of intravenous administration was 3.0 mg/body weight (1 kg) or that in the case of oral administration was 10.0 mg/body weight (1 kg). A plasma sample was analyzed for the compound (I) by the LC-MS/MS method. Pharmacokinetic parameters were estimated by moment analysis. WinNonlin software 6.1 (Pharsight) was used for estimating the PK parameters. Oral bioavailability was calculated based on dose-normalized oral exposure and intravenous plasma exposure amounts.

[5] = Oral bioavailability (BA) in mice; format: in vivo; details: plasma; male Swiss mouse, 10.0 mg/kg oral vs 3.0 mg/kg intravenous
Method: Oral Bioavailability (BA) in Mice
as §3, with “male Swiss mouse (23±3” for “female Wistar rat (210±10”, “(0.3” for “(2.0”

[6] = Method for examining solubility (JP1, JP2); format: physicochemical; details: pH 1.2, simulated gastric fluid, thermodynamic from solid; Solution 1 (JP1) according to the Japanese Pharmacopoeia, room temperature
Method: Method for Examining Solubility
A 10 mmol/L solution of the compound (I) in DMSO was prepared. The 10 mmol/L DMSO stock solution (100 μL) was dispensed to two labelled glass tubes: one for Solution 1 (JP1) according to the Japanese Pharmacopoeia and the other for Solution 2 (JP2) according to the Japanese Pharmacopoeia. DMSO was allowed to evaporate from each of the glass tubes, JP1 and JP2 solutions (500 μL) were added in the corresponding glass tubes. These glass tubes were ultrasonically treated for one minute and placed on a shaker for 30 minutes every 5 minutes at the intervals of 30 seconds. The glass tubes were placed in a dark place at room temperature for one hour and the solutions were filtered through a membrane filter. The filtrates were diluted 2 and 10 fold. The resultant test solutions were analyzed and quantified with UPLC (standard product: a 10 mmol/L solution in DMSO was serially diluted with a 50% aqueous acetonitrile solution to prepare two solutions: a 100 μmol/L standard solution and a 5 μmol/L standard solution) relative to the standard.

Question: Which results are given for `Cn1cc(-c2nc(N3CCOCC3)c3nc(C(=O)N4CCC(N5CCOCC5)CC4)[nH]c3n2)cn1` [compound (I), [2-(1-methyl-1H-pyrazol-4-yl)-6-(morpholin-4-yl)-9H-purin-8-yl][4-(morpholin-4-yl)piperidin-1-yl]methanone]?
Answer: IC50 (PI3Kα): ≥ 1 µM; IC50 (PI3Kβ): ≥ 10 µM; IC50 (PI3Kγ): ≥ 1 µM; IC50 [1]: 0.006 µM; ED50 [2]: 0.3 mg/kg; ED50 [3]: 0.1 mg/kg; bioavailability [4]: 88%; bioavailability [5]: 100%; solubility at 30 min [6]: ≥ 1200 µg/mL
